Measurements taken from ChEMBL document CHEMBL1201862, “PubChem BioAssay data set” (2004).
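Interpolation was linear, between the two tested concentrations surrounding the appropriate level; five concentrations were tested over 48 hours in 96-well plates. At the GI50, growth is halved.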 Activity calls are given as the source filed them. Cut-off read from the data, not from the text of the source: active = GI50 up to about 1.1 µM and inactive = higher.

Tests used:
Test in all cases: NCI anticancer screen, dose series, 48 h
Hs-578T = tested on: Hs-578T
PC-3 = tested on: PC-3
BT-549 = tested on: BT-549
XF498 = tested on: XF498
DMS-114 = tested on: DMS-114
LXFL 529 = tested on: LXFL 529
SNB-78 = tested on: SNB-78

| Compound | GI50 (Hs-578T) | GI50 (PC-3) | GI50 (BT-549) | GI50 (XF498) | GI50 (DMS-114) | GI50 (LXFL 529) | GI50 (SNB-78) |
| --- | --- | --- | --- | --- | --- | --- | --- |
| C/C(=N\NC(=O)c1ccncc1)c1ccc2ccccc2c1O | 16.8 µM (inactive) | 5.6 µM (inactive) | 10.8 µM (inactive) | – | – | – | – |
| CC(C)C(=O)OCN(C)c1nc(N(C)COC(=O)C(C)C)nc(N(C)COC(=O)C(C)C)n1 | 17.9 µM (inactive) | 27.7 µM (inactive) | 20.8 µM (inactive) | – | – | – | – |
| N=C(N)SCCc1ccncc1 | > 100 µM (inactive) | > 100 µM (inactive) | > 100 µM (inactive) | – | – | – | – |
| CCOC(=O)CNC(=O)C(C)NC(=O)C(NC(=O)CC(c1ncc[nH]1)c1ncc[nH]1)C(C)CC (stereo unspecified) | > 100 µM (inactive) | – | – | – | – | – | – |
| N=C1/C(=C/c2ccc(F)cc2)C(=O)N=C2SC=NN12 | > 100 µM (inactive) | > 100 µM (inactive) | 94.6 µM (inactive) | – | – | – | – |
| CC(C)OP(=O)(OC(C)C)c1nc(-c2ccccc2)n(-c2ccc([N+](=O)[O-])cc2)n1 | – | – | – | > 100 µM (inactive) | > 100 µM (inactive) | > 100 µM (inactive) | – |
| N#Cc1ccsc1Nc1ccccc1[N+](=O)[O-] | – | > 100 µM (inactive) | 38.5 µM (inactive) | – | – | – | – |
| COc1ccc(/C=C2/SC(c3c(O)ccc4ccccc34)N(NC(=O)CCCCCCCCC(=O)NN3C(=O)/C(=C\c4ccc(OC)c(OC)c4)SC3c3c(O)ccc4ccccc34)C2=O)cc1OC (stereo unspecified) | – | 1.48 µM (inactive) | – | – | – | – | – |
| Cc1ccc(C(=O)N/N=C2/C(=O)c3c4ccccc4cc4cccc2c34)cc1 | 19.1 µM (inactive) | 25.3 µM (inactive) | > 100 µM (inactive) | – | – | – | – |
| CCOC(=O)c1c(N2CCCC2)[nH]c(=O)c(C(c2cccs2)c2c(O)c(C(=O)OCC)c(N3CCCC3)[nH]c2=O)c1O | > 100 µM (inactive) | > 100 µM (inactive) | > 100 µM (inactive) | – | – | – | – |
| C=C(Br)C(C)(Cl)CCC(Br)C(C)(C)Cl (stereo unspecified) | 89.7 µM (inactive) | 39.4 µM (inactive) | > 100 µM (inactive) | – | – | – | – |
| O=c1cc(-c2ccccc2)nc2[nH]ccn12 | > 10 µM (inactive) | > 10 µM (inactive) | – | – | – | – | – |
| Cc1nc(C)c(C(=O)NNC(=O)C[N+](C)(C)C)cc1C(=O)NNC(=O)C[N+](C)(C)C | – | – | > 100 µM (inactive) | – | – | – | – |
| O=S(=O)(O)Nc1ccc(-c2nc3ccccc3s2)cc1Cl | > 100 µM (inactive) | > 100 µM (inactive) | > 100 µM (inactive) | – | – | – | – |
| COC1CC(OC2CCC3(C)C(=CCC4C3C(OC(C)=O)C(OC(=O)CC(C)C)C3(C)C(C(C)=O)CCC43O)C2)OC(C)C1OC1CC(OC)C(OC2CC(OC)C(OC3OC(C)C(OC4OC(CO)C(O)C(O)C4O)C(OC)C3O)C(C)O2)C(C)O1 (stereo unspecified) | > 75 µM (inactive) | > 75 µM (inactive) | > 75 µM (inactive) | – | – | – | – |
| O=C(c1ccc2ccccc2c1O)N1CCCCC1 | > 100 µM (inactive) | > 100 µM (inactive) | – | – | – | – | – |
| O=S(=O)(Nc1ccccc1)c1ccc(-c2c3nc(c(-c4ccc(S(=O)(=O)Nc5ccccc5)cc4)c4ccc([nH]4)c(-c4ccc(S(=O)(=O)Nc5ccccc5)cc4)c4nc(c(-c5ccc(S(=O)(=O)Nc6ccccc6)cc5)c5ccc2[nH]5)C=C4)C=C3)cc1 | > 31.6 µM (inactive) | > 31.6 µM (inactive) | > 31.6 µM (inactive) | – | – | – | – |
| COc1cc(OC)c(OC)cc1/C=C\c1ccnc2ccccc12 | 0.252 µM (active) | 0.532 µM (active) | 0.412 µM (active) | – | 0.649 µM (active) | 1.45 µM (inactive) | 1.2 µM (inactive) |
| CCN1CCC(O)(c2ccc(Oc3ccc(C)cc3)cc2)C(C(=O)c2ccc(Oc3ccc(C)cc3)cc2)C1 (stereo unspecified) | 17.8 µM (inactive) | 10.9 µM (inactive) | 10.6 µM (inactive) | – | – | – | – |
| Nc1ccc(C2NC(=O)Cc3c2ccc2ccccc32)cc1 (stereo unspecified) | 46.5 µM (inactive) | 45.8 µM (inactive) | – | – | – | – | – |
| O=C(Nc1ccc(/N=N/c2ccccc2)cc1)Sc1ccccc1C(=O)O | – | – | – | – | – | > 100 µM (inactive) | > 100 µM (inactive) |
| C/C1=C\C=C(\C(C)C)CC/C(C(=O)O)=C\CC/C(C)=C/CC1 [NEOCROTOCEMBRANEIC ACID] | 43.6 µM (inactive) | 18 µM (inactive) | 27.5 µM (inactive) | – | – | – | – |
| O=C(CCN1CCN2c3ccccc3CCC2C1)c1ccc(F)cc1 (stereo unspecified) | 35.6 µM (inactive) | 42.8 µM (inactive) | 25.1 µM (inactive) | – | – | – | – |
| COc1ccc(-c2c(-c3ccccc3)c(C)nc3[nH]c(=S)[nH]c(=S)c23)cc1OC | 35.6 µM (inactive) | 25.1 µM (inactive) | 42.2 µM (inactive) | – | – | – | – |

| Compound | GI50 (Hs-578T) | GI50 (PC-3) | GI50 (BT-549) | GI50 (XF498) | GI50 (DMS-114) | GI50 (LXFL 529) | GI50 (SNB-78) |
| --- | --- | --- | --- | --- | --- | --- | --- |
| C/C(Cl)=N\OC(=O)Nc1ccccc1C(F)(F)F | > 100 µM (inactive) | > 100 µM (inactive) | – | – | – | – | – |
| O=C(C/C=C/c1ccccc1)c1ccccc1 | 21.8 µM (inactive) | – | – | – | – | – | – |
| FC(F)(F)c1ccc2c(c1)N(CCCNCCN1CCOCC1)c1ccccc1S2 | – | – | – | 3.81 µM (inactive) | – | 12.7 µM (inactive) | 11.6 µM (inactive) |
| CCC(C)[C@H]1C(=O)N=C(N)N1C(=O)OCc1ccccc1 (stereo partly specified) | – | > 100 µM (inactive) | > 100 µM (inactive) | – | – | – | – |
| CSc1nc(NCc2ccccc2)c2cnn(COCCO)c2n1 | – | 58.1 µM (inactive) | 35.7 µM (inactive) | – | – | – | – |
| COc1cc(-c2cc(-c3ccccc3)nc(-c3c(OC)ccc4c(C)cc(=O)oc34)c2)cc(OC)c1OC | > 100 µM (inactive) | > 100 µM (inactive) | > 100 µM (inactive) | – | – | – | – |
| O=c1c2c3c(sc2nc2n1N=C(c1ccc([N+](=O)[O-])cc1)CS2)CCCC3 | > 100 µM (inactive) | > 100 µM (inactive) | > 100 µM (inactive) | – | – | – | – |
| COC(=O)C1CCCN1C(=O)OC(C)(C)C (stereo unspecified) | – | > 100 µM (inactive) | > 100 µM (inactive) | – | – | – | – |
| CCN(CC(=O)O)C(=O)c1cccnc1 | > 100 µM (inactive) | > 100 µM (inactive) | > 100 µM (inactive) | – | – | – | – |
| COc1ccc2c(c1)C(=O)CC(C(N)=O)C2 (stereo unspecified) | > 100 µM (inactive) | > 100 µM (inactive) | > 100 µM (inactive) | – | – | – | – |
| O=C1CCCSC(=O)N1Cc1ccccc1 | > 100 µM (inactive) | > 100 µM (inactive) | – | – | – | – | – |
| O=C(Nc1ccc(F)cc1)c1cc2c(cc1Cl)Sc1nccn1S2(=O)=O | 30.8 µM (inactive) | 90.6 µM (inactive) | – | – | – | – | – |
| COc1cc(C=O)cc(/C=N/c2ccc(Br)cc2)c1O | 1.8 µM (inactive) | 2.81 µM (inactive) | 6.25 µM (inactive) | – | – | – | – |
| Cc1cc2nc3ccccc3n2c2nc(N)ccc12 | 35.3 µM (inactive) | 40.4 µM (inactive) | 68.9 µM (inactive) | – | – | – | – |
| COc1ccc(C(C2=C(O)COC2=O)c2cc3c(cc2O)OCO3)cc1OC (stereo unspecified) | > 100 µM (inactive) | > 100 µM (inactive) | > 100 µM (inactive) | – | – | – | – |
| CCOC(=O)c1csc(NC(=O)C(C)N2CCCC2)n1 (stereo unspecified) | – | > 100 µM (inactive) | – | – | – | – | – |
| COc1ccc2c(c1)CCCN1Cc3cc(OC)c(OC)cc3CC21 (stereo unspecified) | > 100 µM (inactive) | > 100 µM (inactive) | > 100 µM (inactive) | – | – | – | – |
| COc1cc2c(cc1OC)C(=O)/C(=C/c1ccc(N(C)C)cc1)CC2 | > 10 µM (inactive) | > 10 µM (inactive) | > 10 µM (inactive) | – | – | – | – |
| CCC(CC)C(=O)OC[n+]1ccc(-c2c(COC(=O)NC(C)C)c(COC(=O)NC(C)C)c3n2CCC3)cc1 | > 100 µM (inactive) | > 100 µM (inactive) | > 100 µM (inactive) | – | – | – | – |
| Cc1cc2c(cc1C(=O)CCC(=O)O)CC1(C2)Cc2cc(C)c(C(=O)CCC(=O)O)cc2C1 | > 100 µM (inactive) | > 100 µM (inactive) | – | – | – | – | – |
| Cc1ccc(P(c2ccc(C)cc2)c2ccc(C)cc2)cc1 | 15.5 µM (inactive) | 30.6 µM (inactive) | 35.4 µM (inactive) | – | – | – | – |
| O=C1c2cc3c(cc2CC12Cc1cc4c(cc1C2)CCC4)CCC3 | > 100 µM (inactive) | > 100 µM (inactive) | – | – | – | – | – |
| C=CCSc1nnc2cc(CN3CCCC3)c(-c3ccc(Cl)cc3)nn12 | 40.6 µM (inactive) | 17.9 µM (inactive) | 20.7 µM (inactive) | – | – | – | – |
